BindingDB's records for doi:10.1021/jm030585i (Merck Research Laboratories, 2004)

These compounds were tested against T1, Mineralocorticoid receptor (Rattus norvegicus, UniProt P22199).
T1 sequence (P22199 whole entry): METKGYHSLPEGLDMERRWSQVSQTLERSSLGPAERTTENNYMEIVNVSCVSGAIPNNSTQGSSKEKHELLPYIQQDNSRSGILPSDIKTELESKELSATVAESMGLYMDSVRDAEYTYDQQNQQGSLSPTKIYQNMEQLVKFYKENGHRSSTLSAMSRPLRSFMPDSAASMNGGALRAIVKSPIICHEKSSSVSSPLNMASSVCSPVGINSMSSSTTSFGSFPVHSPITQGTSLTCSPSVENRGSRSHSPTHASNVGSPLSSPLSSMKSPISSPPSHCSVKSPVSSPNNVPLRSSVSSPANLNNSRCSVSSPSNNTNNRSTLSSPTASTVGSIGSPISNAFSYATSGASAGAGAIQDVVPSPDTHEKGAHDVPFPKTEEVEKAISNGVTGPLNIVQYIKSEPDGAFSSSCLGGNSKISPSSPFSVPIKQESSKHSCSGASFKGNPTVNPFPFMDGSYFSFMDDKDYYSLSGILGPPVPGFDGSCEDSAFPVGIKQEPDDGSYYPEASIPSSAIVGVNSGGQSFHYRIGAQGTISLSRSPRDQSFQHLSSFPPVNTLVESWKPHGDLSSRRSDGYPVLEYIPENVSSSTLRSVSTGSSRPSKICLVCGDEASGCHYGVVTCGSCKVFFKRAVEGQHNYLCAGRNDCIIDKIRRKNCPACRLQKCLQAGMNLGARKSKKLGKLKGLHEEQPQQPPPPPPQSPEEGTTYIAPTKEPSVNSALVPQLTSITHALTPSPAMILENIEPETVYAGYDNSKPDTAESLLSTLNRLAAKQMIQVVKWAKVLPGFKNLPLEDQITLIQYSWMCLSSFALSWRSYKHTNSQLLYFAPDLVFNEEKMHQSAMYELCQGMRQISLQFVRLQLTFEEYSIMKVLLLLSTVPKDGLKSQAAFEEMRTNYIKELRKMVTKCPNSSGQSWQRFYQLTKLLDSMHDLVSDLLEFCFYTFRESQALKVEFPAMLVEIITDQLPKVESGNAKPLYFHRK

IC50, > 5 µM:
C=CCC[C@H](O)[C@H]1CCCC2=Cc3c(cnn3-c3ccc(F)cc3)C[C@@]21C [(1S)-1-[(4aR,5S)-1-(4-fluorophenyl)-4a-methyl-1H,4H,4aH,5H,6H,7H,8H-cyclohexa[f]indazol-5-yl]pent-4-en-1-ol]
C[C@]12Cc3cnn(-c4ccc(F)cc4)c3C=C1CCC[C@@H]2[C@H](O)c1ccc(F)cc1 [BMCL173354 benzo[f]indazole, 7]
COc1cc([C@H](O)[C@H]2CCCC3=Cc4c(cnn4-c4ccc(F)cc4)C[C@@]32C)cc(F)c1F [(R)-[(4aR,5S)-1-(4-fluorophenyl)-4a-methyl-1H,4H,4aH,5H,6H,7H,8H-cyclohexa[f]indazol-5-yl](3,4-difluoro-5-methoxyphenyl)methanol]
C[C@]12Cc3cnn(-c4ccc(F)cc4)c3C=C1CCC[C@@H]2[C@](C)(O)c1ccc(F)cc1 [(1S)-1-[(4aR,5S)-1-(4-fluorophenyl)-4a-methyl-1H,4H,4aH,5H,6H,7H,8H-cyclohexa[f]indazol-5-yl]-1-(4-fluorophenyl)ethan-1-ol]
C[C@]12Cc3cnn(-c4ccc(F)cc4)c3C=C1CCC[C@@H]2[C@@H](O)c1ccc(F)cc1 [BMCL173354 benzo[f]indazole, 6]
C[C@]12Cc3cnn(-c4ccc(F)cc4)c3C=C1CCC[C@@H]2[C@@H](O)c1ccccc1 [(R)-[(4aR,5S)-1-(4-fluorophenyl)-4a-methyl-1H,4H,4aH,5H,6H,7H,8H-cyclohexa[f]indazol-5-yl](phenyl)methanol]
